Laboratory results taken from patent publication US12280044B2, “Proteolysis-targeting chimera molecule and preparation method and use thereof” (GUANGZHOU MEDICAL UNIVERSITY, priority 2022, dated 2025).

Experiments:
[1] = test system: zebrafish; test: Zebrafish experiment: survival rates under drug treatment; format: in vivo
Method: (§1) Cultivation conditions for zebrafish and fish eggs: a temperature: 28° C.±1° C.; light: irradiation with a fluorescent lamp; and a light/dark cycle: 14 h light/10 h dark.
(§2) 1. A specific experimental method was as follows: • (1) In the afternoon of day 1, fish mating was conducted to produce 800 to 1,000 fish eggs in a same batch. Experimental groups: an untreated group (negative control), a TYR-4 drug group A3 (10 μM), an arbutin group 1 (10 μM), and an arbutin group 2 (20 mM). • (2) In the morning of day 2, fish eggs were collected and dispensed in a 24-well plate with about 10 embryos per well, where 12 wells were set for each treatment group, that is, about 120 embryos were adopted for each treatment group. In the afternoon of day 2, water was replaced by an E3 medium including a sample in a corresponding experimental group. • (3) Every morning thereafter, the original medium was replaced by a fresh E3 medium including a sample in a corresponding experimental group. • (4) After fish came out from an egg membrane, the egg membrane was removed, the plate was washed twice with an E3 medium, and an E3 medium including a sample in a corresponding experimental group was added, where a date on which the fish came out from the egg membrane was recorded as day 0. • (5) From day 1 to day 5, after a medium was changed every morning, 15 fish were randomly selected from each experimental group and tested under a stereo microscope to measure a gray value of a back. Survival rates of zebrafish under different drug treatments were counted.

[2] = test system: zebrafish; test: Zebrafish experiment: melanin precipitate after lysis on day 5; format: in vivo; settings: 10 μM
Method: 2. After photographing was completed on day 5, 100 zebrafish were taken from each group (only 80 to 90 live fish were left in the 10 μM arbutin group), transferred to a 1.5 mL EP tube, and washed twice with pure water, then 500 μL of 1 M Tris-HCl with a pH of 8.0 was added, ultrasonic lysis was conducted on ice (40% power, on 3 s/off 2 s per cycle, and ultrasonic time: 10 min), and a resulting lysis system was centrifuged at 12,000 rpm and 4° C. for 15 min to obtain a melanin precipitate.

[3] = target: T1, TYR (Homo sapiens, UniProt P14679); test: Performance test: TYR-inhibiting efficiency; format: cell-based; design: endogenous in cells
T1 sequence (P14679 19-529): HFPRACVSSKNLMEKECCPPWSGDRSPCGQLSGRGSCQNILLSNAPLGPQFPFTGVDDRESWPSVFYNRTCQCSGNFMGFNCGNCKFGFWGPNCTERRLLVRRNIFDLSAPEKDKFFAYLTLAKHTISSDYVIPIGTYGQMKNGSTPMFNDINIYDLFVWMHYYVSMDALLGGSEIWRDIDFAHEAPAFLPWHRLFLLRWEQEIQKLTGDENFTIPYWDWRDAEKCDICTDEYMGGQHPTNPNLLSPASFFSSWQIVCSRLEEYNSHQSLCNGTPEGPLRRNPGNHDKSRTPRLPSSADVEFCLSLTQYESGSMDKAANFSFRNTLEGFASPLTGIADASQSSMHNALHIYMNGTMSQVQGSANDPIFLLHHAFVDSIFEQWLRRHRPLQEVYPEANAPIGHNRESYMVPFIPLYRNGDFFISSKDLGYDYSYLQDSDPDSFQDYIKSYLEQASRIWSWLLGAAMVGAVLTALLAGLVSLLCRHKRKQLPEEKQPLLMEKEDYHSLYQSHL
Method: (§3) The cytotoxicity, TYR-inhibiting efficiency, and solubility of the molecule A3 were tested.
The PROTAC molecule of the present application has excellent solubility and safety (IC50>200 μM) and a low effective concentration (1 μM to 10 μM).

[4] = target: T1, TYR; test: Degradation pathway detection with proteasome inhibitor MG132 in MNT-1 cells (WB of TYR); format: cell-based; design: endogenous in cells; host or cells: MNT-1 human melanoma cells; settings: 1 or 10 μM A3 + 10 μM MG132, 24 h
Description: A molecular mechanism of the PROTAC molecule to degrade a target protein is as follows: molecular elements at two ends of the PROTAC molecule bind to the target protein and an ubiquitin ligase, respectively, such that the target protein is ubiquitinated and thus degraded by a proteasome. A proteasome inhibitor MG132 was used to determine whether an impact of the PROTAC molecule on a protein level of TYR was based on a proteasome degradation pathway.
A specific treatment method included the following steps: • (1) MNT-1 cells were plated on a 6-well plate and allowed to grow adherently until a cell confluency was 80%. • (2) The cells were treated according to the following groups: • (a) a normal control group; (b) a 1 μM A3 treatment group; (c) a 10 μM A3 treatment group; (d) a 10 μM MG132 treatment group; (e) a 1 μM A3+10 μM MG132 treatment group; and (f) a 10 μM A3+10 μM MG132 treatment group. • (3) 24 h after a treatment, cells in each group were collected and lysed, and a resulting total protein lysate was collected and tested by WB to determine an expression level of TYR.

[5] = test system: zebrafish; test: Zebrafish experiment: melanin production in the back (gray value); format: in vivo
Method: as §1
as §2, with “Experimental groups: an untreated group (negative control), a TYR-4 drug group A3 (10 μM), an arbutin group 1 (10 μM), and an arbutin group 2 (20 mM). • (2) In the morning of day 2, fish eggs were collected and dispensed in a 24-well plate with about 10 embryos per well, where 12 wells were set for each treatment group, that is, about 120 embryos were adopted for each treatment group.” left out

[6] = Performance test: cytotoxicity; format: cell-based
Method: as §3

[7] = target: T1, TYR; test: TYR protein level by western blot in human melanoma cell line MNT-1; format: cell-based; design: endogenous in cells; host or cells: MNT-1 human melanoma cells; settings: MNT-1 cells, 24 h, 0.001-10 μmol/L, WB
Method: The human melanoma cell line MNT-1 was treated for 24 h with the molecule A3 at a concentration gradient, and then a protein sample was collected and tested by WB to determine a protein level of TYR. In the concentration gradient, final concentrations of the molecule A3 were 0.001 μmol/L, 0.01 μmol/L, 0.1 μmol/L, 1 μmol/L, and 10 μmol/L, respectively.

[8] = target: T1, TYR; test: TYR protein level by western blot in human melanoma cell line A375; format: cell-based; design: endogenous in cells; host or cells: MNT-1 human melanoma cells; settings: A375 cells, 24 h, 0.001-10 μmol/L, WB
Method: The human melanoma cell line A375 was treated for 24 h with the molecule A3 at a concentration gradient, and then a protein sample was collected and tested by western blot (WB) to determine a protein level of TYR. In the concentration gradient, final concentrations of the molecule A3 were 0.001 μmol/L, 0.01 μmol/L, 0.1 μmol/L, 1 μmol/L, and 10 μmol/L, respectively.

[9] = Performance test: solubility; format: physicochemical; settings: organic solvent or mixture; in DMSO
Method: as §3

Structure (SMILES)	day on which death occurs ([1]; 10 μM) [days]	live fish left ([1]; 10 μM, day 5)	survival rate ([1]; 10 μM, day 5)	day on which death occurs ([1]; 20 mM) [days]	survival ([1]; 20 mM, day 5)	melanin precipitate amount versus untreated group [2]	EC50 [3] [µM]	toxic and side effects, death ([1]; effective concentration (10 μM))	degradation effect on TYR after MG132 is added [4]	inhibitory effect on melanin production in zebrafish (gray value of back) ([5]; 10 μM, day 1 to day 5)	effect on melanin production compared with arbutin ([5]; same concentration (10 μM))	IC50 [6] [µM]	inhibitory effect on TYR protein level [7]	inhibitory effect on TYR protein level [8]	solubility [9] [mg/mL]
OC[C@H]1O[C@@H](Oc2ccc(O)cc2)[C@H](O)[C@@H](O)[C@@H]1O [arbutin]	4	80 to 90	about 80%	3	basically dies	significantly smaller than the melanin precipitate amount in the untreated group									
O=C1CCC(N2Cc3c(NC(=O)CCCCCCNC(=O)c4cc[nH]c(=S)c4)cccc3C2=O)C(=O)N1 (stereo not shown) [A3]						significantly smaller than the melanin precipitate amount in the untreated group	< 10	does not have any toxic and side effects and does not cause death	significantly inhibited after MG132 is added	significant inhibitory effect on melanin production in zebrafish	better effect than common whitening agents such as arbutin	> 200	has a significant inhibitory effect on TYR in the cell line MNT-1	has an inhibitory effect on TYR in the cell line A375	> 523
